The source of these data is patent publication US20120309753A1, “METHOD OF DISSOLVING ANTIFUNGAL AGENT, AND COMPOSITIONS WITH A HIGH CONCENTRATION OF ANTIFUNGAL AGENT, SUITABLE FOR APPLICATION TO THE NAIL” (GALDERMA RESEARCH & DEVELOPMENT, priority 2009, published 2012).

Data set [1] in a line: Visual solubility of terbinafine HCl in solvent systems (Method 1). It is filed as physicochemical. As to the method: Terbinafine HCl is weighed out accurately into a 20 ml flask and then the solvents are added. The flask is subsequently placed, with magnetic stirring, in a chamber thermostated at 20° C., for 16 h. If some of the active ingredient has not dissolved, a further addition of solvent is made. The flask is then placed again, with magnetic stirring, in the thermostated chamber, for 16 h, until dissolution is complete. If this is not so, the preceding step is repeated.

The procedure of data set [2]:
Different solubility tests on terbinafine HCl were carried out in different solvent systems. The solubility was both estimated visually by Method 1 below, then quantified by HPLC assay by Method 2 below.
Weigh out precisely approximately 15 mg of terbinafine HCl into a 50 ml volumetric flask. Dissolve in the diluent and make up to the volume with the same solvent. Prepare the solution in duplicate (A1, A2)
Dilute solution A to 1/5 in the diluent. Dilution
The standard range is produced by varying the injection volume of solution A, at an equivalent concentration of 4 μg/ml to 120 μg/ml.
2 tests per sample are prepared, of concentrations from 40 μg/ml to 100 μg/ml.
• Column: Sun Fire C18 4.6×100 mm 3.5 μm, fitted with a precolumn. • Column temperature: 30° C. • Flow rate: 1.5 ml/min • Injected volume: 30 μl for the sample solutions • Analysis time: 10 min • Detection at: 285 nm • Gradient:
• Inject a blank sample (diluent) and check that no peak of the blank sample interferes with the terbinafine HCl. • Inject solutions STD1 and STD2 and check that the % deviation between the 2 controls is <2%.

The subject of data set [3] is Trichophyton rubrum. The note with it: oral route, 250 mg/day for 6 months; cited from earlier work.

Counter-ions that a name gives are not always drawn. Like-named read-outs stand apart in the source and are kept apart here.

As for `CN(C/C=C/C#CC(C)(C)C)Cc1cccc2ccccc12` [terbinafine HCl, terbinafine hydrochloride], the visual solubility in data set [1] (15% water, 70% ethanol, 15% propylene glycol) is on record as 25.2 % w/w; in data set [1] (15% water, 70% propylene glycol, 15% ethanol), 25.0 % w/w; in data set [1] (30% water, 35% propylene glycol, 35% ethanol), 18.5 % w/w; in data set [1] (33% water, 33% propylene glycol, 33% ethanol), 15.5 % w/w; in data set [1] (50/50 ethanol/propylene glycol mixture, 20° C.), 23.3 % w/w; in data set [1] (binary water/ethanol mixture (50/50), 20° C.) it was 16.7 % w/w. For the same compound, the visual solubility in data set [1] (binary water/propylene glycol mixture (50/50), 20° C.) stood at 2.2 % w/w; in data set [1] (in ethanol, 20° C.), 19.7 % w/w; in data set [1] (in propylene glycol, 20° C.), 8.9 % w/w; in data set [1] (in water, 20° C.) it was 0.6 % w/w. For the same compound, the solubility entry in data set [1] (ternary water/propylene glycol/ethanol mixture containing at least 30% of water (Graph 1)) was “greater than 10%”. Further, the “solubility by HPLC assay” value in data set [2] (50/50 ethanol/propylene glycol mixture) was determined as 20.4 % w/w; in data set [2] (in ethanol), 18.09 % w/w; in data set [2] (in propylene glycol) it was 10.3 % w/w. Also, in data set [2] (ethanol/propylene glycol binary mixture, expected from the single solvents), the “expected solubility by additive effect” value is reported as ~14%.
With `CN(C/C=C/C#CC(C)(C)C)Cc1cccc2ccccc12` [terbinafine], the solubility entry in data set [1] (ternary mixture with 40% of water, amount of ethanol greater than or equal to that of propylene glycol) is given as “greater than 10%”. Besides, the “efficacy in the treatment of onychomycoses due to Trichophyton rubrum” value in data set [3] was “effective”.
